In the METLIN SMRT retention time set (Domingo-Almenara et al. 2019) one finds RP-LC retention time data, which are given here for 81 compounds.

Molecules are shown by their SMILES.

The data set in a line: gradient 5% acetonitrile 3 min, to 50% in 2 min, to 85% in 15 min, held 3 min, 100 µL/min. Conditions: column: Zorbax Extend-C18 2.1 x 50 mm; eluents: water / acetonitrile, 0.1% formic acid. The procedure, abridged: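 Mixtures of ~100 pure standards were chromatographed on a Zorbax Extend-C18 column (2.1 × 50 mm, 1.8 μm) at 100 μL/min using water and acetonitrile, each with 0.1% formic acid. Detection used a quadrupole time-of-flight mass spectrometer in positive and negative ionization mode, and data collection spanned 3 months. Retention time was obtained from adduct peaks picked computationally and each checked manually.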
`CCc1cnc2c(c1SCC(=O)N1CCCC1)c(=O)n(C)c(=O)n2C`: the RP-LC retention time worked out at 732 s.

`CC(C)n1cnc(S(=O)(=O)N2CCCC(C(=O)Nc3cccc(CN4CCCC4)c3)C2)c1` (stereo unspecified) came in with an RP-LC retention time of 627 s.

Take `Brc1ccc(OCc2nnc3sc(-c4cccnc4)nn23)cc1`: the RP-LC retention time is 831 s.

Compound `COc1ccc(S(=O)(=O)N2CCC(C(=O)Nc3nnc(C4CCCO4)o3)CC2)cc1` (stereo unspecified) yielded an RP-LC retention time of 658 s.

Consider `COc1ccc2c(c1)C1(CCN(S(=O)(=O)c3cccc(C)c3)C1)C(=O)N2C` (stereo unspecified), for which the RP-LC retention time was 941 s.

`O=C1CC(c2noc(-c3cc(F)ccc3F)n2)CN1c1ccc(Cl)cc1` (stereo unspecified) registered an RP-LC retention time of 1020 s.

Take `CN1C(=O)c2cccnc2Sc2cc(NC(=O)c3ccccc3Br)ccc21`: the RP-LC retention time was found to be 785 s.

Consider `CC1=NN(CCC#N)C(=O)/C1=C\c1ccc(N(C)C)cc1`, for which the RP-LC retention time turned out to be 691 s.

Consider `Cn1cccc1C(=O)NCCn1c(=O)n(Cc2ccccc2)c2cccnc21`, for which the RP-LC retention time was 767 s.

On to `Cc1ccc(NC(=O)Nc2nccn(-c3ccc(C)c(C)c3)c2=O)cc1C`, for which the RP-LC retention time amounted to 1150 s.

`Cc1noc2nc(C)n(CC(=O)NCc3ccccc3F)c(=O)c12`: the RP-LC retention time turned out to be 710 s.

`Cc1cccc(OCC(=O)N2CCN(c3cc(C)n4cnnc4n3)CC2)c1` displayed an RP-LC retention time of 621 s.

Compound `CC(C)n1cnc2cc(CNC(=O)c3c(F)cccc3F)ccc21` returned an RP-LC retention time of 612 s.

As to `CCn1cc(-c2ccc(OC)cc2)cc1C(=O)N1CCCN(C)CC1`, the RP-LC retention time was 627 s.

Compound `COc1ccc(NC(=O)NCC(=O)N2CCc3ccccc32)c(OC)c1` returned an RP-LC retention time of 762 s.

`CC1(C)[C@H]2CC[C@](C)(C2)[C@H]1NS(=O)(=O)c1ccc(F)cc1` returned an RP-LC retention time of 1140 s.

Turning to `CN(C)C[C@@H]1CN(S(C)(=O)=O)C[C@H]1NC(=O)COc1ccc(Cl)cc1`, the RP-LC retention time worked out at 629 s.

`Cc1ccc(S(=O)(=O)c2cnc(N3CCN(c4ccccc4Cl)CC3)nc2N)cc1C` registered an RP-LC retention time of 1280 s.

`CN(Cc1nc2cc(C(=O)N3CCCC3)ccc2n1C)C(=O)Nc1ccc(F)cc1F` returned an RP-LC retention time of 607 s.

`CSc1ccc(Cl)c(C(=O)Nc2cccn3c(C)nnc23)c1` returned an RP-LC retention time of 759 s.

`C=Cc1ccc(Cn2cc(S(=O)(=O)N3CCCC3)ccc2=O)cc1` showed an RP-LC retention time of 886 s.

Turning to `CCOc1cc(=O)c(C(=O)N2CCC(C(N)=O)CC2)nn1-c1ccc(F)cc1`, the RP-LC retention time turned out to be 595 s.

For the compound `COC1CN(c2cccc(F)c2)C12CCN(S(=O)(=O)c1cccc(F)c1)CC2` (stereo unspecified), the RP-LC retention time worked out at 1200 s.

Consider `CCN1CCCC(OC(=O)C(c2ccccc2)c2ccccc2)C1` (stereo unspecified), for which the RP-LC retention time was 802 s.

`O=c1n(Cc2ccccc2)nc2c(S(=O)(=O)N3CCN(c4ccc(F)cc4)CC3)cccn12` had an RP-LC retention time of 973 s.

Compound `O=C(NCc1cccc2ccccc12)NCC1CCN(C(=O)COc2ccccc2)CC1` yielded an RP-LC retention time of 770 s.

In turn, `O=C(CCSc1ccc(Cl)cc1)Nc1nc(-c2ccccc2)cs1` had an RP-LC retention time of 1170 s.

In turn, `Cc1noc(C)c1S(=O)(=O)N1CC(CN(C)C)C2(CCOCC2)C1` (stereo unspecified) registered an RP-LC retention time of 600 s.

With `Cc1ccc(Nc2nc(-c3ccc(C)cc3C)cs2)nc1`, the RP-LC retention time worked out at 965 s.

Regarding `O=C(Nc1cccc(Cl)c1)c1ccccn1`, the RP-LC retention time turned out to be 1010 s.

`CN(C)c1nc(Nc2ccc(F)cc2)c2cnn(C)c2n1` displayed an RP-LC retention time of 781 s.

`COC(=O)c1cccc(Nc2c(-c3ccc(F)cc3)nc3cnccn23)c1` came in with an RP-LC retention time of 830 s.

The compound `Cc1noc(C2CC3(CCN(C(=O)C4(c5ccccc5)CC4)CC3)CN2C)n1` (stereo unspecified) showed an RP-LC retention time of 631 s.

Regarding `FC1(F)CN[C@H](c2nc(-c3ccncc3)no2)C1`, the RP-LC retention time came out at 614 s.

`CC(Oc1ccccc1)C(=O)N1CC(c2nc(-c3ccsc3)nn2C)C1` (stereo unspecified): the RP-LC retention time was found to be 766 s.

With `CCc1nn(CC)c(=O)c2cc(S(=O)(=O)NCc3cccc(Cl)c3)cn12`, the RP-LC retention time came out at 982 s.

Turning to `COc1cccc(N2CCN(C(=O)CN3CCN(Cc4ccc(C)cc4)C(=O)C3=O)CC2)c1`, the RP-LC retention time was determined as 772 s.

Compound `Cc1ccc(Sc2nccnc2N2CCC(C(=O)N3CCN(c4ccc(C)cc4)CC3)CC2)cc1` returned an RP-LC retention time of 1290 s.

Compound `CCOc1ccccc1-c1noc(-c2nnn3c2COC(c2cccc(OC)c2)C3)n1` (stereo unspecified) returned an RP-LC retention time of 1080 s.

Consider `O=C(NC1CCCCC1)C1CCCN(c2nc3ccsc3c(=O)n2Cc2ccc(F)cc2)C1` (stereo unspecified), for which the RP-LC retention time came to 972 s.

Regarding `O=C(c1ccsc1)N1CCOc2ccc(N3CCOCC3)cc2C1`, the RP-LC retention time was 701 s.

With `CCOc1ccccc1CNC(=O)CN1CCN(Cc2cccc(Cl)c2)C1=O`, the RP-LC retention time was determined as 910 s.

Consider `Cc1ccc(S(=O)(=O)Cc2ccc(-c3nc(-c4ccc5oc(C)nc5c4)no3)cc2)cc1`, for which the RP-LC retention time came out at 1070 s.

Regarding `COCCCNC(=O)C1CCC(=O)N(c2ccc(OC)cc2)C1c1ccc(F)cc1` (stereo unspecified), the RP-LC retention time turned out to be 609 s.

In turn, `COc1cc(-c2ccccc2)nc2ccc(NC(=O)COc3ccc(F)cc3)cc12` returned an RP-LC retention time of 776 s.

`CCCN(CC1CCOC1)C(=O)Nc1ccc2c(c1)OCCO2` (stereo unspecified) showed an RP-LC retention time of 732 s.

The compound `CCCn1ccc2sc(C)c(C(=O)N3CCN(C(C)C)CC3)c2c1=O` gave an RP-LC retention time of 587 s.

`COCC1CN(Cc2cn[nH]c2-c2ccccc2)CCC1(F)F` (stereo unspecified): the RP-LC retention time was 609 s.

On to `CC(NC(=O)c1ccc2nc(-c3ccc(Cl)cc3)cn2c1)c1ccccn1` (stereo unspecified), for which the RP-LC retention time worked out at 635 s.

With `Cc1ccc(C)c(CNC(=O)c2cn3c(n2)CCCC3)c1`, the RP-LC retention time was found to be 622 s.

In turn, `COCc1noc(C2CN(C(=O)CC(F)(F)F)CC23CCCC3)n1` (stereo unspecified) came in with an RP-LC retention time of 798 s.

For the compound `COCCC(=O)N1CCCCC1c1nncn1Cc1ccccc1` (stereo unspecified), the RP-LC retention time came to 643 s.

`O=C(Cn1c(=O)c2cccn2c2ccccc21)Nc1ccc(Cl)cc1`: the RP-LC retention time worked out at 901 s.

`CCc1ccc(NC(=O)c2c(C)sc3ncnc(N4CCCC4)c23)cc1` returned an RP-LC retention time of 975 s.

The compound `N#Cc1cc(NC(=O)c2ccc3c(c2)OCO3)ccc1N1CC2CC(C1)c1cccc(=O)n1C2` (stereo unspecified) gave an RP-LC retention time of 749 s.

The compound `COc1ccccc1-c1nc(C2CC(=O)N(c3ccc(F)cc3)C2)no1` (stereo unspecified) registered an RP-LC retention time of 926 s.

Turning to `OC(CN1CCN(c2cccc(Cl)c2)CC1)C(c1ccccc1)c1ccccc1` (stereo unspecified), the RP-LC retention time worked out at 885 s.

In the case of `Cc1oc(-c2ccc(C(=O)NCCCN3CCN(C)CC3)cc2)nc1CS(=O)c1ccccc1` (stereo unspecified), the RP-LC retention time worked out at 581 s.

`CCC1CCCCN1C(=O)c1cnc2nc(C)ccc2c1Nc1ccc(F)cc1C` (stereo unspecified): the RP-LC retention time turned out to be 703 s.

In the case of `O=C(Oc1ccccc1)N1CCC(CNS(=O)(=O)/C=C/c2ccccc2)CC1`, the RP-LC retention time was 912 s.

Take `CN(C)CCN(C(=O)CN1C(=O)c2ccccc2C1=O)c1nc2ccc(Cl)cc2s1`: the RP-LC retention time was 616 s.

Turning to `Cc1nc(-c2cccs2)sc1C(=O)NCCn1nc(-n2ccnc2C)ccc1=O`, the RP-LC retention time was 564 s.

As to `Cc1ccc(NC(=O)N2CCCC(C)(C(=O)NCc3ccc(F)cc3)C2)cc1F` (stereo unspecified), the RP-LC retention time turned out to be 959 s.

Regarding `CC(C)c1ccc(OCC(=O)Nc2nnc(C3CC(=O)N(c4ccccc4)C3)o2)cc1` (stereo unspecified), the RP-LC retention time was 728 s.

Regarding `CNC(=O)[C@@H]1CN(C(=O)NCc2ccco2)C[C@H]1c1nc(C)no1`, the RP-LC retention time came out at 602 s.

`COC(=O)c1cnc2nc(C)ccc2c1Nc1cccc(Br)c1` returned an RP-LC retention time of 718 s.

Regarding `CC(C)CCNC(=O)C1CCCN(c2nnc3ccc(C(F)(F)F)cn23)C1` (stereo unspecified), the RP-LC retention time is 829 s.

`CC1(C)NC(=O)N(CCC(=O)N2CCC(c3nc(C4CCOCC4)no3)C2)C1=O` (stereo unspecified) registered an RP-LC retention time of 604 s.

On to `O=c1ccc(N2CCC(NS(=O)(=O)c3ccccc3C(F)(F)F)C2)n[nH]1` (stereo unspecified), for which the RP-LC retention time worked out at 687 s.

Turning to `COC(=O)CNC(=O)NC(C(=O)N1CCc2ccccc21)c1ccccc1` (stereo unspecified), the RP-LC retention time is 792 s.

Turning to `CN1CCC(=C2c3ccccc3C(O)c3ccccc32)CC1` (stereo unspecified), the RP-LC retention time was found to be 665 s.

Regarding `CC(NC(=O)c1cn2c(n1)CCCC2)c1ccc(F)cc1` (stereo unspecified), the RP-LC retention time is 612 s.

`CCC(=O)Nc1ccc2c(c1)CN(C(=O)c1ccccc1)C(C(=O)N1CCCC1)C2` (stereo unspecified) had an RP-LC retention time of 667 s.

In turn, `O=C(c1ccc(CN2C(=O)CCn3nc(-c4ccccc4)cc32)cc1)N1CCN(c2ccccn2)CC1` displayed an RP-LC retention time of 638 s.

Compound `CC(C)NC(=O)Cn1cnc2c(sc3nc(-c4ccccc4)ccc32)c1=O` gave an RP-LC retention time of 817 s.

Consider `CCCN(CC1CCOC1)C(=O)Nc1c(F)cccc1F` (stereo unspecified), for which the RP-LC retention time was determined as 731 s.

Regarding `CCOc1ccccc1NC(=O)Nc1ccc2c(c1)CCN2S(=O)(=O)c1ccc(C)cc1`, the RP-LC retention time amounted to 1100 s.

Take `COc1ccc(OC)c(S(=O)(=O)NCc2ccc3c(c2)CCN3C(=O)c2ccccc2)c1`: the RP-LC retention time was 896 s.

Consider `COCCCNC(=O)c1c(OCC2CC2)cc(=O)n2c1CCCCC2`, for which the RP-LC retention time was found to be 611 s.

Compound `COc1cccc(-c2noc(NC3CC3)n2)c1` gave an RP-LC retention time of 787 s.

On to `CCCS(=O)(=O)N1CCCC(C)(C(=O)NCc2ccc(OC)cc2)C1` (stereo unspecified), for which the RP-LC retention time stood at 798 s.
